Active and inactive are the calls of the source. The calls are words filed in the database; no cut-off is given here.
Columns and labels:
[1] = target: T1, E3 ubiquitin-protein ligase Mdm2 (Homo sapiens, UniProt Q00987); experiment: Inhibition of Mdm2 -p53 protein interaction by ELISA
Target sequence in this assay (Q00987 whole entry): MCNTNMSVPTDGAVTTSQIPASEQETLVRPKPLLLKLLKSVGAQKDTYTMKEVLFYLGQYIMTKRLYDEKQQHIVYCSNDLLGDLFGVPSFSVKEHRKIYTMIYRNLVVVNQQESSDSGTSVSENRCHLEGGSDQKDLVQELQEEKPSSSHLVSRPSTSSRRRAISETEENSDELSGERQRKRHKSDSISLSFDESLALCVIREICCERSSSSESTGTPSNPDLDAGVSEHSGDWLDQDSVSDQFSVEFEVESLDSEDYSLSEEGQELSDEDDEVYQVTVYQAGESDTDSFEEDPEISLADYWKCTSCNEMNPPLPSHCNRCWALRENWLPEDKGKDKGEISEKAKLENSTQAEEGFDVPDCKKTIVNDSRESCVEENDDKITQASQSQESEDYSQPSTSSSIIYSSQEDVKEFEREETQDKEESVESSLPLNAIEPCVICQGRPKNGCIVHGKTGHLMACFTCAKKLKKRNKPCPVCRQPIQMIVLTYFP

[2] = target: T1, E3 ubiquitin-protein ligase Mdm2; experiment: Inhibition of Mdm2 -p53 protein interaction in human […] cells assessed as induction of p53 protein at 1 to 20 uM after 6 hrs by Western blot analysis; assay type: cell-based
Target sequence in this assay (Q00987 whole entry, looked up): as the sequence (Q00987 whole entry) above

[3] = target: T1, E3 ubiquitin-protein ligase Mdm2; experiment: Inhibition of Mdm2 -p53 protein interaction in human […] cells assessed as induction of p21 protein at 1 to 20 uM after 6 hrs by Western blot analysis; assay type: cell-based
Target sequence in this assay (Q00987 whole entry, looked up): as the sequence (Q00987 whole entry) above

[4] = target: T1, E3 ubiquitin-protein ligase Mdm2; experiment: Inhibition of Mdm2 -p53 protein interaction in human […] cells assessed as induction of MDM2 protein at 1 to 20 uM after 6 hrs by Western blot analysis; assay type: cell-based
Target sequence in this assay (Q00987 whole entry, looked up): as the sequence (Q00987 whole entry) above

[5] = target: T1, E3 ubiquitin-protein ligase Mdm2; experiment: Inhibition of Mdm2 -p53 protein interaction in human […] cells assessed as induction of p53 protein at 10 uM after 6 hrs by Western blot analysis; assay type: cell-based
Target sequence in this assay (Q00987 whole entry, looked up): as the sequence (Q00987 whole entry) above

[6] = target: T1, E3 ubiquitin-protein ligase Mdm2; experiment: Inhibition of Mdm2 -p53 protein interaction in human […] cells assessed as induction of p21 protein at 10 uM after 6 hrs by Western blot analysis; assay type: cell-based
Target sequence in this assay (Q00987 whole entry, looked up): as the sequence (Q00987 whole entry) above

[7] = system: SAOS-2; experiment: Cytotoxicity against human Saos2 cells after 72 hrs by sulforhodamine B assay; assay type: functional; settings: SAOS-2, 72 h
[8] = system: SJSA-1; experiment: Cytotoxicity against human SJSA1 cells after 72 hrs by sulforhodamine B assay; assay type: functional; settings: SJSA-1, 72 h
[9] = system: HCT-116; experiment: Cytotoxicity against human p53 expressing HCT116 cells after 72 hrs by sulforhodamine B assay; assay type: functional; settings: HCT-116, 72 h
[10] = Cytotoxicity against human NGP cells after 72 hrs by sulforhodamine B assay; assay type: functional
[11] = Cytotoxicity against human LS cells after 72 hrs by sulforhodamine B assay; assay type: functional
[12] = system: HCT-116; experiment: Cytotoxicity against p53 deficient human HCT116 cells after 72 hrs by sulforhodamine B assay; assay type: functional; settings: HCT-116, 72 h

## CCCN1C(=O)c2ccccc2C1(O)c1ccc(Cl)cc1 (stereo unspecified)
[1]
  IC50: 69 µM

## Cc1ccc(CN2C(=O)c3ccccc3C2(O)c2ccc(Cl)cc2)cc1 (stereo unspecified)
[1]
  IC50: 15 µM

## N#Cc1ccc(CN2C(=O)c3ccccc3C2(O)c2ccc(Cl)cc2)cc1 (stereo unspecified)
[1]
  IC50: 6 µM

## O=C1c2ccccc2C(O)(c2ccc(Br)cc2)N1Cc1ccc([N+](=O)[O-])cc1 (stereo unspecified)
[1]
  IC50: 3.1 µM

## O=C1c2ccccc2C(O)(c2ccc(Cl)cc2)N1CCc1ccccc1 (stereo unspecified)
[1]
  IC50: 7.2 µM

## O=C1c2ccccc2C(O)(c2ccc(Cl)cc2)N1CCc1ccc([N+](=O)[O-])cc1 (stereo unspecified)
[1]
  IC50: 6.2 µM

## Nc1ccc(CCN2C(=O)c3ccccc3C2(O)c2ccc(Cl)cc2)cc1 (stereo unspecified)
[1]
  IC50: 6.2 µM

## O=C1c2ccccc2C(O)(c2ccc(Cl)cc2)N1Cc1cccc2ccccc12 (stereo unspecified)
[1]
  IC50: 47 µM

## O=C(c1ccccc1)c1ccc(CN2C(=O)c3ccccc3C2(O)c2ccc(Cl)cc2)cc1 (stereo unspecified)
[1]
  IC50: > 20 µM

## O=C1c2ccccc2C(O[C@H]2CC[C@@H](O)C2)(c2ccc(Cl)cc2)N1Cc1ccc([N+](=O)[O-])cc1 (mixture of isomers)
[1]
  IC50: 0.4 µM

## O=C1c2ccccc2C(O[C@H]2C=C[C@@H](O)C2)(c2ccc(Cl)cc2)N1Cc1ccccc1 (mixture of isomers)
[1]
  IC50: 4.7 µM

## N#Cc1ccc(CN2C(=O)c3ccccc3C2(OCCCCO)c2ccc(Cl)cc2)cc1 (racemic)
[1]
  IC50: 3.5 µM

## O=C1c2ccccc2C(O[C@H]2CCC[C@H](O)CCC2)(c2ccc(Cl)cc2)N1Cc1ccc([N+](=O)[O-])cc1 (mixture of isomers)
[2]
  inhibition: Dose-dependent effect
[3]
  inhibition: Dose-dependent effect
[1]
  IC50: 0.38 µM
[4]
  inhibition: Dose-dependent effect

## O=C1c2ccccc2C(OCC2(CO)CC2)(c2ccc(Cl)cc2)N1Cc1ccncc1 (racemic)
[1]
  IC50: 252 µM

## CC(C)(CO)COC1(c2ccc(Cl)cc2)c2ccccc2C(=O)N1Cc1ccc([N+](=O)[O-])cc1 (racemic)
[2]
  inhibition: Dose-dependent effect
[3]
  inhibition: Dose-dependent effect
[4]
  inhibition: Dose-dependent effect

## O=C1c2ccccc2C(OC[C@H]2CC[C@H](CO)CC2)(c2ccc(Cl)cc2)N1Cc1ccc([N+](=O)[O-])cc1 (mixture of isomers)
[2]
  inhibition: Dose-dependent effect
[3]
  inhibition: Dose-dependent effect
[5]
  inhibition: Active
[6]
  inhibition: Active
[4]
  inhibition: Dose-dependent effect

## COc1ccc(C2=N[C@@H](c3ccc(Cl)cc3)[C@@H](c3ccc(Cl)cc3)N2C(=O)N2CCNC(=O)C2)c(OC(C)C)c1 [NUTLIN-3]
[7]
  GI50: 18 µM
[8]
  GI50: 2.6 µM
[9]
  GI50: 13 µM
[10]
  GI50: 2.1 µM
[11]
  GI50: 2.3 µM
[12]
  GI50: 34 µM

Reference: ChEMBL document CHEMBL1687910, “Isoindolinone inhibitors of the murine double minute 2 (MDM2)-p53 protein-protein interaction: structure-activity studies leading to improved potency” (J Med Chem, 2011)
